Assays:
[1] = Storage of granules of different benzimidazole compounds with heavy magnesium carbonate or lactose, changes in appearance (Experimental Example 2); format: physicochemical; set-up: key to Changes in appearance after 1 week at 50° C. and 75% RH: −: No changes; ++: Severely; settings: for Changes in appearance after 1 week at 50° C. and 75% RH: granules as in Example 5; for stability of the pharmaceutical compositions of the invention: granules with heavy magnesium carbonate, 50° C. and 75% RH, 1 week
Text: Granules were produced in the same manner as in Example 5 except that the compound (A), the compound (C), the compound (D), omeprazole or timoprazole was used instead of the compound (B). […] As a control to each composition, granules were also produced in the same manner except that lactose was used instead of heavy magnesium carbonate and stored under the same conditions.

[2] = Control: lactose instead of heavy magnesium carbonate
[3] = Invention: additive heavy magnesium carbonate

| Changes in appearance after 1 week at 50° C. and 75% RH [1, 2] | Changes in appearance after 1 week at 50° C. and 75% RH [1, 3] | stability of the pharmaceutical compositions of the invention [1] | melting point | Structure (SMILES) |
| --- | --- | --- | --- | --- |
| ++ | − | stable | 161 to 163 °C (dec.) | Cc1c(OCC(F)(F)C(F)(F)F)ccnc1C[S+]([O-])c1nc2ccccc2[nH]1 (stereo not shown) [Compound (A), 2-[[3-methyl-4-(2,2,3,3,3-pentafluoropropoxy)-2-pyridyl]methyl-sulfinyl]benzimidazole] |
| ++ | − | stable |  | COc1ccc2nc([S+]([O-])Cc3ncc(C)c(OC)c3C)[nH]c2c1 (stereo not shown) [Omeprazole, 5-Methoxy-2-[(4-methoxy-3,5-dimethyl-2-pyridyl)methylsulfinyl]benzimidazole] |
| ++ | − | stable |  | [O-][S+](Cc1ccccn1)c1nc2ccccc2[nH]1 (stereo not shown) [Timoprazole, 2-[(2-Pyridyl)methylsulfinyl]benzimidazole] |

Source: patent publication US6749864B2, “Stabilized pharmaceutical composition” (Takeda Chemical Industries, Ltd., priority 1986, dated 2004)
